This note sets out measurements from patent publication US9580426B2, “Compounds that expand hematopoietic stem cells” (Novartis AG, priority 2008, dated 2017).

One experiment has as its target T1, AHR (Mus musculus, UniProt P30561).
T1 construct: endogenous in cells; host or cells: unnamed murine cells
T1 sequence (P30561 10-848): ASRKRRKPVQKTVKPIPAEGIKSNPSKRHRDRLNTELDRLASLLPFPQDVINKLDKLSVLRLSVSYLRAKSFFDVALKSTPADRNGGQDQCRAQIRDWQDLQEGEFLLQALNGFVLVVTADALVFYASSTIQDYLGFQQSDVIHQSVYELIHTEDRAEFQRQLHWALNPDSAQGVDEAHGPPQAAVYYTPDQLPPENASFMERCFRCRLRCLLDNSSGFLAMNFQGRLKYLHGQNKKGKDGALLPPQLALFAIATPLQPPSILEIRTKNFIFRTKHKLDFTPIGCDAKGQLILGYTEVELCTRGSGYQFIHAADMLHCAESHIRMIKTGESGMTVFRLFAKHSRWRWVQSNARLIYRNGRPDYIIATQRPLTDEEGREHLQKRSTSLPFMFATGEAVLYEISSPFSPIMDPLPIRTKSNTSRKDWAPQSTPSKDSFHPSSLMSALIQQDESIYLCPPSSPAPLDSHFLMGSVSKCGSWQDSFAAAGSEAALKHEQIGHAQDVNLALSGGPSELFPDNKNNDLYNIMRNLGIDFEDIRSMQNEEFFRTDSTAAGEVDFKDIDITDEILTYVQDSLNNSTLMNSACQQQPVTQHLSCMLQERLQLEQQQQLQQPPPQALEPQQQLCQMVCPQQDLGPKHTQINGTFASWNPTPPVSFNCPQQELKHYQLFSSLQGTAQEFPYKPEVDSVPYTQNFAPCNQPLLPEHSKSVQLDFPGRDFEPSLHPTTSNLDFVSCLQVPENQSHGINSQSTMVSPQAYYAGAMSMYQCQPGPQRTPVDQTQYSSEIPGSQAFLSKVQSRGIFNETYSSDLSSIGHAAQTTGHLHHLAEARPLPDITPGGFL
Kind of experiment: Dioxin induced AHR dependent transcription, murine cells. In kind it is cell-based. As for the experimental part:
Further, the ability of Example 1 to block 2,3,7,8-tetrachlorodibenzo-p-dioxin (TCDD, dioxin)-mediated CYP1B1 mRNA expression by qPCR in mPB-derived CD34^+ cells was determined. Treatment with TCDD (3 nM) caused a 4.5-fold increase in the level of CYP1B1 mRNA compared with the vehicle control (0.01% toluene). […] To determine the effects of Example 1 in AHR transcription the ability of Example 1 to inhibit a dioxin-induced AHR dependent luciferase reporter gene assay was tested.

For experiment [1], the system named is Primary adult CD34+ human hematopoietic stem cells (HSCs). Briefly: % CD34+ assay: HSC expansion screen, dose response. In kind it is cell-based. Conditions: Homo sapiens, Hematopoietic stem cell; dose response 1 nM to 10 μM; total number and/or percent of CD34+ cells. The method in brief: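 Human CD34+ cells, chiefly MACS-enriched from G-CSF-mobilized peripheral blood, were grown at 37° C., 5% CO2 in serum-free StemSpan with TPO, IL-6, Flt-3 ligand and SCF (50 ng/mL each), plus compound or DMSO. Cultures were kept at 10^4–5×10^5 cells/mL and assessed by flow cytometry for CD34 expression. EC50 came from a 1 nM–10 μM dose response.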

As usually defined, the EC50 is the concentration that produces a half-maximal response. Low readings indicate an effect from little substance, high ones a need for much substance. Turning to `CC(C)n1cnc2c(NCCc3ccc(O)cc3)nc(-c3csc4ccccc34)nc21` [Example 1, 4-(2-(2-(benzo[b]thiophen-3-yl)-9-isopropyl-9H-purin-6-ylamino)ethyl)phenol], on AHR, the “agonist activity (AHR dependent transcription)” value is “only weak agonist activity” and the “inhibition of dioxin induced transcription” value is given as “only weakly inhibited”. In addition, the EC50 in experiment [1] was 120 nM.
